Reference: US10888541B2, “Method and compositions for treatment and prevention of broad spectrum virus ailments comprising a calcium channel blocker or a calmodulin blocker” (DR. KENNETH ADAMS MEDICINE PROFESSIONAL CORPORATION, priority 2009, dated 2021)

Legend:
cold sores = experiment: Case reports: recurrent cold sores, topical application; assay type: in vivo, human; conditions: Patient A, 100 mg/ml topically
Genital Herpes = experiment: Case report: recurrent Genital Herpes; assay type: in vivo, human
Text: Patient with a long history of recurrent Genital Herpes was using Diltiazem.

[1] = Case report: Rheumatoid Arthritis of the hands, topical ointment; conditions: for pain in hand: person, within hours of applying; for mobility of joints: sustained applications over several days
HIV = experiment: Case report: HIV patient, T4 helper counts; assay type: in vivo, human; conditions: 240 mg (120 mg of verapamilSR) twice daily for 2 weeks
[2] = Case report: fever, chills, muscle aches, nausea and diarrhea; assay type: in vivo, human; conditions: person; 120 mg tablets every 8 hours; within one hour of first tablet
Text: A person with a three day history of fever, chills, muscle aches and nausea. On the second and third days the patient developed increasing diarrhea. On the morning of the third day the patient was experiencing loose, watery stools with a cramps and lower abdominal pain.

Herpes Zoster infection = experiment: Case report: Herpes Zoster infection; assay type: in vivo, human; conditions: elderly patient; 120 mg SR twice daily
Text: Elderly patient with Herpes Zoster infection on the upper left abdomen.

[3] = Case report: latex glove allergy (delayed hypersensitivity reaction); assay type: in vivo, human
Text: A person surgeon with a latex glove allergy. Symptoms of a red eczematous rash develops when they use latex gloves.

[4] = system: viral upper respiratory infection; experiment: Case report: viral upper respiratory infection, intranasal/throat spray
Text: person with symptoms of viral upper respiratory infection started experiencing nasal congestion and nasal discharge.

SMILES | cold sore infection when applied in the initial tingling phase (cold sores) | severity and size of cold sore when application delayed until eruption visible (cold sores) | time to complete healing clearance (cold sores; application delayed until eruption visible, usual 7 days) | frequency of genital herpes recurrences (Genital Herpes; after starting treatment, before: several episodes per year) | size and healing of genital herpes episodes (Genital Herpes; when on treatment) | pain in hand [1] | mobility of joints [1] | T4 helper counts (HIV) | abdominal cramping, stools and diarrhea [2] | pain, rash and healing of lesions (Herpes Zoster infection) | chronic rash from daily exposure to latex ([3]; 200 mg/ml ointment) | delayed hypersensitivity reaction to latex gloves ([3]; 200 mg/ml ointment applied prior to wearing latex gloves) | time until nasal discharge stopped ([4]; 0.2 ml of 2 mg/ml sprayed into each nostril and back of throat) | upper respiratory symptoms ([4]; next day, after repeated 0.1 ml applications intranasally and to throat) | nasal congestion and nasal discharge ([4]; person, 0.2 ml of 2 mg/ml sprayed into each nostril and back of throat, within minutes)
COc1ccc([C@@H]2Sc3ccccc3N(CCN(C)C)C(=O)[C@@H]2OC(C)=O)cc1 [Diltiazem, diltiazem] | the infection could be prevented | minimize the severity, reduce the size | 2 to 4 days | 1-2 episodes per year | much smaller and seemed to heal much quicker | significant reduction of pain in their hand | improved mobility of joints | – | – | – | – | – | – | – | –
COc1ccc(CCN(C)CCCC(C#N)(c2ccc(OC)c(OC)c2)C(C)C)cc1OC (centres unmarked) [Verapamil, verapamil] | – | – | – | – | – | significant reduction of pain in their hand | improved mobility of joints | significant rise in T4 helper counts | abdominal cramping began subsiding and their stools began to become more formed and diarrhea improved | reduced pain, reduced rash and rapid healing of lesions | improved within hours | prevented | approximately 20 minutes | cleared | reduction in nasal congestion and decreased nasal discharge
